Data from patent publication US10633374B2, “Small molecule based antibody-recruiting compounds for cancer treatment” (YALE UNIVERSITY, priority 2015, dated 2020).

How the values were obtained:
uPAR (uPA binding site) = molecular target: T1, uPAR (uPA binding site) (Homo sapiens, UniProt Q03405); test: Competitive ELISA uPAR binding assay (immobilized urokinase)
T1 construct: purchased R&D systems
Description: The affinity of ARM-U2 derivatives differing in both the length of the DNP-linker substituted at position 2 of ring C and the display of negative charge density (FIG. 8, Table 1) for uPAR were assayed using a competitive ELISA binding assay. The assay involves the immobilization of urokinase, a natural high affinity ligand for uPAR followed by the addition of a fixed concentration of recombinant uPAR protein and increasing concentrations of ARM-U2 which competes with urokinase for binding to the uPA binding site of uPAR. Following several washing steps, the amount of uPAR bound is quantified by a biotinylated anti-uPAR antibody and avidin-HRP and can be fit to a competitive binding model allowing for the extraction of the uPAR/ARM-U2 Kd.
All ARM-U2 derivatives were assessed for their ability to bind selectively to recombinant uPAR in vitro using a competitive ELISA binding assay. DMSO stock solutions of each ARM-U2 derivative stored at −20° C. were titrated into wells pre-coated with human urokinase (isolated from human urine, ProSpec 1 mg/ml deI water 18.5 μM) in the presence of uPAR. Selective binding to uPAR by ARM-U2 at the uPA binding site competes with uPAR-uPA binding which is required for a positive UV 450 nm absorbance signal. Increasing concentrations of ARM-U2 displace increasing amounts of uPAR from uPA which is detected by anti-uPAR/biotin labeled antibodies followed by avidin-HRP. The sigmoidal binding isotherm of absorbance at 450 nm vs log ARM-U2 concentration can then by fit by non-linear regression analysis to obtain the IC50 for ARM-U2/uPAR binding (Equation S2) which can then be translated into a KI for ARM-U2/uPAR binding using a competitive binding model adapted from the Cheng-Prusoff equation relating KI to IC50 (Equation S3). The ELISA experiments were performed as followed: To Corning high binding 96 well flat bottom plates was added 100 μl/well of 100 nM urokinase in sterile PBS. The plates were sealed and left to incubate at 4° C. overnight. The plates were then washed 1× with 200 μl wash buffer (PBS+0.05% Tween-20) and 1× with 400 μl wash buffer. The plates were blotted on paper towel and blocked for 1 h shaking at room temp with 300 μl of a solution of thermo superblock in PBS per well. Molecule dilutions into solutions of a fixed concentration (10 nM) of uPAR were prepared in 0.025% triton-X/PBS on a separate low binding plate during the blocking hour. The plates were again washed followed by the addition of 100 μl of the ARM-U2/uPAR solution with 0.1% final DMSO concentration. The solutions were mixed by multichannel pipette, sealed, and incubated for 2 h with shaking at room temperature. The plates were then washed 1× with 200 μl wash buffer (PBS+0.05% Tween-20) and 2× with 400 μl wash buffer. The plates were blotted on a paper towel followed by the addition of 100 μl/well of a solution of biotinylated anti-uPAR antibody in 1% BSA/PBS. (R&D Systems, 3.3 μl taken from 50 μg/250 μl-1000× stock) and incubation with shaking for 1 h at room temp. The plates were washed 1× with 200 μl wash buffer and 2× with 400 μl wash buffer and blotted on a paper towel. 100 μl of avidin-HRP (stock −500× from e-bioscience) were added per well, incubated 20 min with shaking at room temp followed by washing 1× with 200 μl wash buffer and 3× with 400 μl wash buffer. The plates were blotted dry with paper towel and 100 μl of TMB substrate was added to each well. The emergence of blue color was monitored and the reaction quenched with the addition of 50 μl of 2M sulfuric acid to each well followed by measuring the absorbance at 450 nm using a fluorescence plate reader. […]

A172 glioblastoma cells = test: Antibody-dependent cellular phagocytosis (ADCP) of A172 cells by U937 cells; format: cell-based, human; conditions: U937 effector cells, anti-DNP antibodies
Description: ADCP experiments carried out via a dual channel flow cytometry assay and were performed by measuring the % phagocytosis of A172 human glioblastoma cells by IFN-gamma primed U937 macrophage effector cells each stained with FL-1 and FL-4 dyes respectively giving rise to double positive FL-1 and FL-4 fluorescence shifts accompanying phagocytosis. These assays were performed in the presence and absence of exogenously added anti-DNP antibodies and various concentrations of each ARM-U2 derivative. Control experiments were also performed to confirm that cellular phagocytosis is occurring and is dependent on ARM-U2 binding cell surface uPAR by • 1. Performing out competitions with exogenous uPAR, • 2. Performing out-competitions with 6-ABT-4 which should bind uPAR but not anti-DNP antibodies • 3. Performing ADCP at 4 degrees Celsius where phagocytosis cannot occur and • 4. Amnis microscopic analysis of double positives identified in the ADCP assay to undergo 6-ABT-1 dependent phagocytosis.
IFNγ-primed U937 cells were stained with DiD dye (final concentration 1.9 μM) for 30 min at 37° C. A172 target cells were prepared by staining adherent cells with DiO dye (Invitrogen; final concentration 1.9 μM), and then nonenzymatically detaching the cells with 0.5 mM EDTA and EGTA. Cells were counted with trypan blue staining to verify cell viability. To measure phagocytosis, 2.5×10^4 target cells were suspended in 25 ul phenol-free low-IgG RPMI media to which 25 ul of 100 nM anti-DNP antibody (rabbit polyclonal KLH IgG, Invitrogen-100× stock) containing media was added followed by the addition of 1 ul of ARM-U2 from 100×DMSO stocks or 6-ABT-4 from 100×DMSO stocks for compound out-competition experiments, followed by the addition of 50 ul of 10^5 U937 cells in the same RPMI Assay Media resulting in a final volume of 100 uL. This experimental setup yielded an effector-to-target ratio (E:T ratios) of 4:1. For out-competition studies with exogenous uPAR, 250 ul of A-172 target cells in assay media was added directly to lyophilized 100 ug uPAR (R@D systems) to yield an 8.4 uM stock uPAR concentration, this was then combined in the manner and order described above. Eppendorfs were centrifuged at 200 rcf for 2 min then incubated at 37° C. for 1 hour or at 4° C. for 1 hr in controls establishing real phagocytosis is indeed represented by double positives in flow cytometry. Phagocytosis was halted by placing tubes on ice. […] The live cell population selected was further gated into four quadrants using dual FL-1 and FL-4 fluorescence enabling for the differentiation of effector only cells (top left quadrant-high FL-4), target only cells (bottom right quadrant-high FL-1 fluorescence), and double positive overlapping target and effector cells (top right quadrant-high FL-1 and FL-4 fluorescence). […]

[1] = system: B16 melanoma tumors expressing human uPAR; test: B16 mouse melanoma allograft model expressing human uPAR; format: in vivo
From the text: The inventors also examined the efficacy of ARM-U2 in a B16−uPAR mouse allograft model developed in our laboratory. Mice immunized to produce anti-DNP IgG antibodies containing tumors expressing human uPAR, received daily treatment via intraperitoneal (IP) injection and were monitored over the course of 42 days.

recombinant uPAR = molecular target: T2, recombinant uPAR (Homo sapiens, UniProt Q03405); test: Fluorescence quenching titration of ARM-U2 derivatives with uPAR; format: binding; conditions: fluorescence titration of 100 nM derivative with increasing uPAR; read-out: Kd, solution equilibrium dissociation constant with uPAR
T2 construct: purchased R&D systems
Description: Selected ARM-U2 derivatives were assayed for their ability to bind recombinant uPAR using a fluorescence quenching assay. […] Increasing concentrations of recombinant uPAR were mixed with each compound containing aliquot and the fluorescence of the solution measured following 1 h equilibration times. […] To confirm that the observation of uPAR dependent fluorescence quenching was indeed due to specific binding to uPAR and to validate ARM-U2 binding to uPAR specifically via the uPA binding site, a direct binding ELISA assay was developed. In this assay, clear 96-well high-binding plates from CoStar, were loaded with 100 μl/well of 50 nM recombinant uPAR 807-UK-100-CF from R&D systems prepared from a 100 μg/ml (approx. 2.1 μM) stock of uPAR in PBS and left overnight at room temperature to equilibrate. Following equilibration, the plate was washed with wash buffer 1× (400 μl/well of 0.05% Tween/PBS), blotted dry and blocked for 1 hr with 300 ul/well of 2% BSA/PBS. Following blocking, the plate was washed with 400 ul of the wash buffer and blotted dry. […] The absorbance at 450 nm was measured using an in-house Perkin-Elmer fluorescence plate reader.
All ARM-U2 derivatives were assessed for their ability to bind selectively to recombinant uPAR in vitro using a competitive ELISA binding assay. […] Selective binding to uPAR by ARM-U2 at the uPA binding site competes with uPAR-uPA binding which is required for a positive UV 450 nm absorbance signal. Increasing concentrations of ARM-U2 displace increasing amounts of uPAR from uPA which is detected by anti-uPAR/biotin labeled antibodies followed by avidin-HRP. The sigmoidal binding isotherm of absorbance at 450 nm vs log ARM-U2 concentration can then by fit by non-linear regression analysis to obtain the IC50 for ARM-U2/uPAR binding (Equation S2) which can then be translated into a KI for ARM-U2/uPAR binding using a competitive binding model adapted from the Cheng-Prusoff equation relating KI to IC50 (Equation S3). […]

T1 sequence (Q03405 23-305): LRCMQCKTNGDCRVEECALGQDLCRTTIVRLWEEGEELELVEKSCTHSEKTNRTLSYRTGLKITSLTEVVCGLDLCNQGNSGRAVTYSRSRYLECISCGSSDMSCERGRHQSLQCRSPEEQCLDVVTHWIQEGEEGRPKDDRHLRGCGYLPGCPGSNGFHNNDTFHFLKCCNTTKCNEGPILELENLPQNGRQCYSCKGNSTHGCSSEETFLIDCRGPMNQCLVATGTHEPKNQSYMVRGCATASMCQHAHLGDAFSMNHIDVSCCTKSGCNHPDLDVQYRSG
T2 sequence (Q03405 23-305): as above

Question: For O=C(O)CNc1cccc(Nc2cc(N3CCC[C@H](C(=O)NCCCOCCOCCOCCCNc4ccc([N+](=O)[O-])cc4[N+](=O)[O-])C3)c3noc4c3c2C(=O)c2ccccc2-4)c1 [4-ABT-1], which “uPAR-binding affinity relative to parent ARM-U2 derivative 1-ABT-1” value (uPAR (uPA binding site)) is on record?
Answer: modest increase in affinity

Question: What about the “ADCP efficacy and potency compared to 1-ABT-1” value (A172 glioblastoma cells) of the same molecule?
Answer: no increase in efficacy or potency in ADCP

Question: Which results are given for Nc1c(N2CCCC(C(=O)NCCCOCCOCCOCCCNc3ccc([N+](=O)[O-])cc3[N+](=O)[O-])C2)cc(Nc2ccc(S(=O)(=O)O)cc2S(=O)(=O)O)c2c1C(=O)c1ccccc1C2=O (stereo not drawn) [compound 23]?
Answer: Ki (uPAR (uPA binding site); calculated from the ELISA IC50): 0.01 µM; IC50 (uPAR (uPA binding site); competition with immobilized uPA for uPAR): 0.063 µM

Question: What does the source list for O=C(O)c1cc(Nc2cc(N3CCC[C@H](C(=O)NCCCOCCOCCOCCCNc4ccc([N+](=O)[O-])cc4[N+](=O)[O-])C3)c3noc4c3c2C(=O)c2ccccc2-4)cc(C(=O)O)c1 [2-ABT-1]?
Answer: uPAR-binding affinity relative to parent ARM-U2 derivative 1-ABT-1 (uPAR (uPA binding site)): no increase in uPAR-binding affinity; ADCP efficacy and potency compared to 1-ABT-1 (A172 glioblastoma cells): no increase in efficacy or potency in ADCP

Question: Which “uPAR-binding affinity relative to parent ARM-U2 derivative 1-ABT-1” value (uPAR (uPA binding site)) does the source give for O=C1c2ccccc2-c2onc3c(N4CCC[C@H](C(=O)NCCCOCCOCCOCCCNc5ccc([N+](=O)[O-])cc5[N+](=O)[O-])C4)cc(Nc4cccc(S(=O)(=O)O)c4)c1c23 [5-ABT-1] here?
Answer: no increase in uPAR-binding affinity

Question: And the “ADCP efficacy and potency compared to 1-ABT-1” value (A172 glioblastoma cells)?
Answer: no increase in % phagocytosis

Question: How did the “uPAR-binding affinity relative to parent ARM-U2 derivative 1-ABT-1” value (uPAR (uPA binding site)) turn out when O=C(O)CNC(=O)c1cccc(Nc2cc(N3CCC[C@H](C(=O)NCCCOCCOCCOCCCNc4ccc([N+](=O)[O-])cc4[N+](=O)[O-])C3)c3noc4c3c2C(=O)c2ccccc2-4)c1 [3-ABT-1] was run?
Answer: modest increase in affinity

Question: What about the “ADCP efficacy and potency compared to 1-ABT-1” value (A172 glioblastoma cells) of the same molecule?
Answer: no increase in efficacy or potency in ADCP

Question: Which results are given for COc1cccc2c1C(=O)c1c(O)c3c(c(O)c1C2=O)C[C@@](O)(C(=O)CO)C[C@@H]3O[C@H]1C[C@H](N)[C@H](O)[C@H](C)O1 [doxorubicin]?
Answer: average tumor volume after 17 days ([1]; IP injections over 17 days): approximately 200 mm^3; mean survival ([1]; daily IP treatment): 27 days; tumor growth inhibition (TGI) ([1]; daily IP, ARM-U2 20 mpk or 100 mpk, Dox 1 mpk, vs PBS): comparable; persistence of tumor regression after treatment cessation ([1]; mouse, in vivo): ~14 days

Question: How did the Kd (recombinant uPAR) turn out when O=C(CCCC(=O)NCCOCCOCCOCCOCCOCCOCCOCCNc1ccc([N+](=O)[O-])cc1[N+](=O)[O-])NCCOCCOCCOCCOCCOCCOCCOCCNC(=O)[C@H]1CCCN(c2cc(Nc3ccc(S(=O)(=O)O)cc3S(=O)(=O)O)c3c4c(onc24)-c2ccccc2C3=O)C1 [6-ABT-3] was run?
Answer: 0.018 µM
